Several values for one entry are separate records, joined by “and”; a condition that tells them apart may be missing. Equal values may be shown once. Read-outs that look alike come from different tables or passages of the source.
How the values were obtained:
TOPK = target: T1, TOPK (Homo sapiens, UniProt Q96KB5); test: Microscale thermophoresis (MST) binding assay; details: labeled TOPK 50 nM, 25°C, means ± SD for three experiments
T1 construct: hexa-histidine; made in house; host or cells: Escherichia coli BL21 (DE)
T1 sequence (Q96KB5 1-322): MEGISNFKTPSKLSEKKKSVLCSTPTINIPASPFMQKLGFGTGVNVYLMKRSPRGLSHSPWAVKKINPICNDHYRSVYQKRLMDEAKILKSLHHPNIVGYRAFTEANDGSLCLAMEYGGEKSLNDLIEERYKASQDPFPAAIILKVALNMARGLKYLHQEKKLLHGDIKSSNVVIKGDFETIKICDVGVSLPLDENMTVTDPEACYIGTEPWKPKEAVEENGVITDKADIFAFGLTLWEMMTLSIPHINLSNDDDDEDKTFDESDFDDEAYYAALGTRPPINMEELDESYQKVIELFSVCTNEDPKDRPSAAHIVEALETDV
Source text: To validate results of the virtual ligand screening, we employed microscale therm ophoresis method (MST) to assay the binding affinity between compounds and TOPK. This technology detected fluorescent changes of molecules during thermophoresis, to quantify protein-protein interactions or protein-small molecule interactions with high sensitivity and low sample cost.
Human TOPK gene (Accssion number: NM_018492) was cloned into the pET26b vector (Novagen). The expression construct pET26b-TOPK was transformed into Escherichia coli strain BL21 (DE) (Invitrogen) and selected on kanamycin plates. The transformed cells were cultivated in Luria-Bertani (LB) media at 37°C in the presence of kanamycin until the optical density (OD) reached 0.8. Cells were then induced with 0.4 mM IPTG (isopropyl-β-D-1-thiogalactopyranoside) for 16 h at 20°C. The cells harvested by centrifugation were lysed by ultrasonication on ice in a buffer containing 20 mM Tris, pH 8.5, 200 mM NaCl, 5 mM mercaptoethanol, 0.1% TritonX-100, and 5% glycerol.
Soluble hexa-histidine tagged TOPK was bound to Ni-agarose affinity resin (Qiagen), washed with buffer A (20 mM Tris, pH 8.5, 200mM NaCl, and 10 mM imidazole), and eluted with buffer B (20 mM Tris, pH 8.8, 250 mM NaCl, and 150 mM imidazole).
Recombinant TOPK was labeled with the Monolith NT™ Protein Labeling Kit RED (Cat # L001) according to the supplied labeling protocol. Labeled TOPK was used in a concentration of 50 nM. The samples were diluted in a 20 mM HEPES (pH 7.4) and 0.5 (v/v) % Tween-20. The prazoles stocks were dissolved in 10% DMSO in a concentration of 1 mM. 1mM prazoles were used as the highest concentration for serial dilutions. After 10minutes incubation at room temperature, the samples were loaded into Monolith^TM standard-treated capillaries and the thermophoresis was measured at 25°C after 30 minutes incubation on a Monolith NT.115 instrument (NanoTemper Technologies, München, Germany). Laser power was set to 20% using 30 seconds on-time. The LED power was set to 100%. The dissociation constant Kd values were fitted by using the NTAnalysis software (NanoTemper Technologies, München, Germany).

HCT116 cells [1] = test: Cell viability (cck8) assay, HCT116; type: cell-based; details: Homo sapiens, HCT-116, read-out: IC50 for HCT116 cell activities
Experimental: (§1) To estimate cell viability, human colon cancer HCT 116, ES-2, A549 and SW1990 cells (5000 cells/well) were seeded in 96-well plates for 24 h at 37°C in a 5% CO2 incubator. […] All experiments were performed in triplicate, and the mean absorbance values were calculated.

ES-2 cells [2] = test: Cell viability (cck8) assay, ES-2; type: cell-based; details: Homo sapiens, read-out: IC50, growth of ES-2 cells
Experimental: as §1

[3] = test system: A549, HCT116, ES-2 and SW1990 cells; test: Cell viability (cck8) assay, 4 TOPK-positive cancer cell lines; type: cell-based; details: Homo sapiens; range over A549, HCT116, ES-2, SW1990; read-out: IC50 values, growth inhibition across the cell lines
Experimental: TOPK protein levels were measured by western blot in cancer cell lines derived from various cancer types, such as lung cancer (A549), colon cancer (HCT116), human ovarian cancer (ES-2) and pancreatic cancer cell (SW1990).
as §1

HCT116 cells [4] = test: Apoptosis by flow cytometry (Annexin V/propidium iodide), HCT116; type: cell-based, human; details: HCT116, 50 μM, 24 h; control 2%
Experimental: (§2) Cells were pre-treated with different concentrations of ilaprzole for 24 h, and then the cellular apoptosis was measured by using flow cytometry. […] Apoptotic cells were assessed by staining PBS washed cells with phycoerythrin (PE)-conjugated annexin-V (BD Pharmingen) for 10-15 minutes in incubation buffer (Annexin-V-FLUOS Staining Kit, Roche). Fluorescence was recorded by flow cytometry using the FACS Aria (BD Bio sciences).

ES-2 cells [5] = test: Apoptosis by flow cytometry (Annexin V/propidium iodide), ES-2; type: cell-based, human; details: ES-2, 50 μM, 24 h; control 2%
Experimental: as §2

[6] = test system: TOPK activity (phosphorylation of histone H3 Ser10) in HCT116 cells; test: Western blot of phosphorylated histone H3 (Ser10), HCT116; type: cell-based, human
Experimental: (§3) TOPK proteins were expressed mainly around chromosomal surfaces in mitotic cells, particularly at prophase and metaphase, so the histone was chosen as the substrate for TOPK activity evaluation. Some reports confirmed that TOPK could phosphorylate histone H3 in vitro and in vivo. […] (Figure 3a, 3b, Supplementary Figure 1a, 1b)
(§4) Histones were extracted from cells by disrupting the cells with NETN buffer [150 mM NaCl, 1 mM EDTA, 20 mM Tris-HCl (pH 8.0), 0.5% nonionic detergent IGEPAL CA 630(NP-40), Sigma]. The insoluble fraction was pelleted for 5 minutes in a microcentrifuge (8,400 rpm). Nuclei were extracted with 0.1 M HCl to isolate the total histones. The samples were precipitated with 1 M Tris- HCl (pH 8.0) and then resuspended in ddH2O.
(§5) The harvested cells were lysed with lysis buffer (50 mM Tris-HCl (pH 7.4), 150 mM NaCl, 1 mM EDTA, 1 mM EGTA, […], 5 mM phenylmethanesulfonyluoride (PMSF), 1 mM dithiolthreitol (DTT) containing 1% Triton X-100). Insoluble debris was removed by centrifugation at 12000 rpm for 15 minutes, and protein's content was determined using Bradford reagent (Bio-Rad, USA). Lysate protein (20-40 μg) was subjected to 10% SDS-PAGE and electrophoretically transferred to polyvinylidene difluoride membranes (PVDF) (Millipore, USA). […] Band density was quantified using the Image J software program (NIH).

[7] = test system: TOPK activity (phosphorylation of histone H3 Ser10) in ES-2 cells; test: Western blot of phosphorylated histone H3 (Ser10), ES-2; type: cell-based, human
Experimental: as §3, §4, §5

HCT116 cells [8] = test: Cell cycle distribution by flow cytometry, HCT116; type: cell-based, human; details: HCT116, increasing doses, 48 hours
[9] = test system: shTOPK and shMock infected cancer cells; test: Growth of shMock versus shTOPK infected cells (CCK8); type: cell-based, human; details: 48 hours
Source text: To investigate the growth-promoting role of TOPK in cancer cells, the expression of endogenous TOPK was knocked down in four cancer cells. By lentiviral infection, HCT116, ES-2, A549 and SW1990 cell lines stably expressing low levels of TOPK (shTOPK) were established. As the control, cells were infected with shMock. The abundance of TOPK in these cells was confirmed by western blot analysis (Figure 2a).
The effect of ilaprazolewas examined in shMock and knockdown cell lines with shTOPK. Cells were incubated for 48 hours and growth was determined by cck8 assay.
“The target sequences of oligo siRNAs were as follows: 5′-[…] -3′ for TOPK to produce lentiviral particles.”
The transfection medium was changed at 4 hours after transfection and then cells were cultured for 36 hours. The viral particles were harvested by filtration using a […] syringe filter, then combined with […] of polybrene (Millipore) and infected into 60% confluent HCT-116 cells overnight. The cell culture medium was replaced with fresh complete growth medium for 24 hours and then cells were selected with puromycin ([…]) for 36 hours. The selected cells were used for experiments.

HCT116 xenograft = HCT116 xenograft mouse model, tumor growth; type: in vivo, CB-17/Icr-scid mice; details: for tumor weight: control 1.45 ± 0.33 g
Experimental: (§6) Estimated tumor volumes of both treating groups were less than that of the control group throughout the treatment. […] Animals were then scarified and the average tumor weights were measured and calculated. The tumor weight of the control group was 1.45 ± 0.33 g, whereas the tumor weights of low-dose and high-dose treated groups were 0.67 ± 0.21g and 0.52 ± 0.11g, respectively (Figure 5c), representing significant reduction.
(§7) CB-17/Icr-scid mice were purchased from Beijing HFK Bioscience CO., LTD (Beijing, China). The animals were maintained under ‘specific pathogen free’ conditions. The mice were randomly divided into three groups: (i) vehicle group (n = 8); (ii) 150 mg/kg ilaprazole-treated group (n = 8); (III) 75 mg/kg ilaprazole-treated group. HCT 116 cells were inoculated subcutaneously (2 × 10^6 cells) into the left flank of each mouse in all groups. Treatment was started after 4 days of cell injection. The duration of the animal study was 19 days. The tumor volume was calculated from measurements of 3 diameters of the individual tumor based on the following formula:
tumor volume (mm^3) = (length × width × height × 0.52). The mice were monitored until tumors reached 1 cm^3 total volume, at which the mice were euthanized and the tumors were extracted. The tumors were dissected and sent for immune-histochemical analysis.

[10] = HCT116 xenograft mouse model, toxicity and body weight; type: in vivo, CB-17/Icr-scid mice
Experimental: as §6
as §7, with “formula: […]” for “formula:”

[11] = parameters: method as in SciFinder Academic database; details: ref SciFinder Academic database; cited from earlier work
[12] = rat, in vivo; cited from earlier work

Compound: CCSc1ccnc(C[S+]([O-])c2nc3ccccc3[nH]2)c1C (centres unmarked) [Disuprazole, disuprazole]
- Kd (TOPK): n.b^c
- IC50 (HCT116 cells [1]): > 500 µM

Compound: COc1ccc2nc([S@@+]([O-])Cc3ncc(C)c(OC)c3C)[nH]c2c1 [Esomeprazole, esomeprazole]
- Kd (TOPK): n.b^c
- IC50 (HCT116 cells [1]): > 500 µM

Compound: COc1ccnc(C[S+]([O-])c2nc3cc(-n4cccc4)ccc3[nH]2)c1C (centres unmarked) [Ilaprazole, ilaprazole]
- Kd (TOPK; read-out: Kd): 111 ± 2.3 µM
- IC50 (HCT116 cells [1]): 40 ± 0.6 µM
- IC50 (ES-2 cells [2]): 33.2 ± 1 µM
- IC50 [3]: 30.1 to 148 µM
- apoptotic death (HCT116 cells [4]): 32.03%
- apoptotic death (ES-2 cells [5]): 7.62%
- phosphorylation of histone H3 (Ser10) [6]: substantially attenuated in a dose-dependent manner
- phosphorylation of histone H3 (Ser10) [7]: substantially attenuated in a dose-dependent manner
- cell cycle distribution (HCT116 cells [8]): cell cycle arrested at the G1 phase
- growth inhibition of shTOPK cells compared with shMock cells [9]: resistant to the inhibitory effect
- tumor weight (HCT116 xenograft; 75 mg/kg daily via gavage (low-dose)): 0.67 ± 0.21 g
- tumor weight (HCT116 xenograft; 150 mg/kg daily via gavage (high-dose)): 0.52 ± 0.11 g
- tumor volume (HCT116 xenograft; 75 and 150 mg/kg daily via gavage, after 2 weeks' treatment): Significant decreases
- phosphorylated histone H3 in tumor tissues (immunohistochemistry) (HCT116 xenograft; ilaprazole-treated groups versus vehicle group): substantially decreased
- microstructures of sections of the liver, kidney and spleen ([10]; mice treated daily for 15 days): No significant damage
- hepatotoxicity and nephrotoxicity ([10]; mice, 75 and 150 mg/kg oral): no obvious hepatotoxicity and nephrotoxicity
- mouse body weight ([10]; mice, 75 and 150 mg/kg via gavage): no effect
- logP value [11]: 2.882 ± 1.045
- LD50 [12]: more than 5000 mg/kg

Compound: Cc1c(OCC(F)(F)F)ccnc1C[S+]([O-])c1nc2ccccc2[nH]1 (centres unmarked) [Lansoprazole, lansoprazole]
- Kd (TOPK; read-out: Kd): 241 µM and 242 µM
- IC50 (HCT116 cells [1]): 103 ± 4.1 µM

Compound: COc1ccc2[nH]c([S+]([O-])Cc3ncc(C)c(OC)c3C)nc2c1 (centres unmarked) [Omeprazole, omeprazole]
- Kd (TOPK; read-out: Kd): 174 µM
- IC50 (HCT116 cells [1]): 348 ± 7.3 µM

Compound: COc1ccnc(C[S+]([O-])c2nc3ccc(OC(F)F)cc3[nH]2)c1OC (centres unmarked) [Pantoprazole, pantoprazole]
- Kd (TOPK; read-out: Kd): 24 µM and 24.2 µM
- IC50 (HCT116 cells [1]): 153 ± 8.5 µM
- logP value [11]: 1.571 ± 1.065

Compound: COCCCOc1ccnc(C[S+]([O-])c2nc3ccccc3[nH]2)c1C (centres unmarked) [Rabeprazole, rabeprazole]
- Kd (TOPK; read-out: Kd): 324 µM
- IC50 (HCT116 cells [1]): > 500 µM
